Results as given in patent US11807780B2, “Aqueous coatings containing biosurfactants as bio-adjuvants and methods for using same” (RHODIA OPERATIONS, priority 2018, dated 2023).
Values joined by “and” are separate entries in the source; they are usually repeats but may differ in a detail not shown here. Identical values can stand only once. Like-named read-outs stand apart in the source and are kept apart here.

Test system: Pseudomonas aeruginosa ATCC 9027
Experiment: MIC determination by two fold dilutions in 96 well microtiter plates, biocide with and without bio-surfactant
Type: cell-based
Conditions: for MIC: Pseudomonas aeruginosa; for microbial growth (absorbance at 660 nm): Table 3 / FIG. 5, triplicate wells
Method: In microbiology, minimum inhibitory concentration (MIC) is defined as the lowest concentration of an antimicrobial that will inhibit the growth of an microorganism after overnight or long incubation. Minimum inhibitory concentrations are important in diagnostic laboratories to confirm resistance of microorganisms to an antimicrobial agent and also to monitor the activity of new antimicrobial agents. A lower MIC is an indication of a better antimicrobial agent, as less is generally needed for acceptable performance. An MIC determination is generally regarded as a basic or standard laboratory measurement of the activity of an antimicrobial agent against an organism.
Biocides tested: • Methylchloroisothiazolinone/Methylisothiazolinone (CMIT/MIT) [also known as KATHON]: • Benzisothiazolinone [BIT] • Methylisothiazolinone [MIT]
Microorganism Used: Pseudomonas aeruginosa ATCC 9027
Biosurfactants tested: • 1. R95D90 (SigmaAldrich) 95% pure rhamnolipid with 90% Di-rhamnolipid dominant • 2. R95M90 (SigmaAldrich) 95% pure rhamnolipid with 90% Mono-rhamnolipid dominant • 3. Natural Saponin
MIC test is a method for determining the Minimum Inhibitory Concentration of a compound required to inhibit or kill the test organisms. MIC50 test is a method for determining the Minimum Inhibitory Concentration of a compound required to inhibit or kill the 50% of the test organisms.
1. The method was based on the MIC (Minimum Inhibitory Concentration) determination by standard two fold dilutions prepared in an appropriate medium and tested in 96 well microtiter plates.
2. A 4× concentration of the active from bio-surfactant stock solution [400 ppm] was prepared to dispense into […].
3. The plates were divided into four sections. Unless otherwise stated, Columns 1-3 received a combination of the bio-surfactant and biocide, Columns 4-6 received biocide alone, and Columns 7-9 received the bio-surfactant alone. Column 10 was left empty, Column 11 was blank medium and Column 12 was medium plus the suspension of the organism.
5. One microtiter plate per test organism and per biocide was used. The dilution scheme is attached as a separate PDF file “Dilution Scheme”.
6. 100 μL of sterile water was aliquoted into to columns 4-6, 11 and 12 with the aid of a 12-channel pipettor add 50 μL in Columns 1-3 and 7-9.
7. Dispensed 50 μL of the 8× stock solution of an appropriate biocide (MIT, BIT or Kathon) in Row A Columns 1-3
8. After mixing with the aid of the multichannel pipettor, 50 μL from the row A wells were transferred to 2nd row [B] wells and after mixing, 50 μL transferred to row C and, the operations were repeated down to row […] and 50 μL from H row (the last row) were discarded.
9. Make 4× stock solution [400 ppm] of each of the bio-surfactants. Dispensed 50 μL of bio-surfactant in 4 different 96 well plates in Columns 7-9 in each of the respective plates.
10. In wells 4-6, 100 μL of individual biocides at 4× concentration were added to the top row A, then serially diluted down to row H while discarding the final 100 μL from row H.
11. Columns 1-3 and 7-9 received 50 μL of 4× bio-surfactant.
12. In a separate tube, prepared bacterial inoculums from 24 hr grown cultures by suspending the cells in 2× Tryptic Soy Broth medium for bacteria.
13. The bacterial inocula were adjusted to 5-6 logs cfu/ml by measuring the turbidity.
14. With an aid of the multichannel pipettor, aliquots of 100 μL organisms were dispensed into each well except for Column 11 in which blank medium was added.
15. Incubated the plates at 35 Celsius degrees for 24 hours for bacterial growth
16. Made visual recordings of positive or negative growth in wells. Measured the absorbance at 660 nm and assessed viability via addition of resazurin dye. Note: for bacterial growth, 10 μL of dye Resazurin stock [250 mg/50 mL] was added to determine the positive and negative growths as determined by color change from blue to pink. […]

Cn1sccc1=O [MIT, 2-methyl-4-isothiazolin-3-one]
MIC (ATCC9027, read-out: MIC w/o BS, biocide alone, Di-Rhamnolipid 95% series): 12.5 µg/mL | MIC (ATCC9027, read-out: MIC w/o BS, biocide alone, Mono + Di Rhamnolipid 95% series): 12.5 µg/mL | MIC (ATCC9027, read-out: MIC w/o BS, biocide alone, Mono-Rhamnolipid 95% series): 12.5 µg/mL | MIC (ATCC9027, read-out: MIC w/o BS, biocide alone, Natural Saponin series): 12.5 µg/mL | MIC (ATCC9027, read-out: MIC with BS, with Di-Rhamnolipid 95% (50 ppm)): 12.5 µg/mL | MIC (ATCC9027, read-out: MIC with BS, with Mono + Di Rhamnolipid 95% (50 ppm)): 6.5 µg/mL | MIC (ATCC9027, read-out: MIC with BS, with Mono-Rhamnolipid 95% (50 ppm)): 6.5 µg/mL | MIC (ATCC9027, read-out: MIC with BS, with Natural Saponin (Purchased), 50 ppm active): > 100 µg/mL

O=c1[nH]sc2ccccc12 [BIT, 1,2-benzisothiazolin-3-one]
MIC (ATCC9027, biocide alone, Di-Rhamnolipid 95% series, read-out: MIC w/o BS): 25 µg/mL | MIC (ATCC9027, biocide alone, Mono + Di Rhamnolipid 95% series, read-out: MIC w/o BS): 25 µg/mL | MIC (ATCC9027, biocide alone, Mono-Rhamnolipid 95% series, read-out: MIC w/o BS): 25 µg/mL | MIC (ATCC9027, biocide alone, Natural Saponin series, read-out: MIC w/o BS): 25 µg/mL | MIC (ATCC9027, with Di-Rhamnolipid 95% (50 ppm), read-out: MIC with BS): 12.5 µg/mL | MIC (ATCC9027, with Mono + Di Rhamnolipid 95% (50 ppm), read-out: MIC with BS): 12.5 µg/mL | MIC (ATCC9027, with Mono-Rhamnolipid 95% (50 ppm), read-out: MIC with BS): 12.5 µg/mL | MIC (ATCC9027, with Natural Saponin (Purchased), 50 ppm active, read-out: MIC with BS): > 200 µg/mL | microbial growth (absorbance at 660 nm) (PPM 1.56): 0.046 and 0.048 and 0.047 | microbial growth (absorbance at 660 nm) (PPM 3.13): 0.046 and 0.047 and 0.048 | microbial growth (absorbance at 660 nm) (PPM 6.25): 0.047 and 0.048 | microbial growth (absorbance at 660 nm) (PPM 50): 1.278 and 1.284 and 1.285 | microbial growth (absorbance at 660 nm) (PPM 100): 1.339 and 1.313 and 1.302 | microbial growth (absorbance at 660 nm) (PPM 200): 1.371 and 1.379
